Laboratory results reported in ChEMBL document CHEMBL5375971, “Structure-Interaction Relationship of Polymyxins with Lung Surfactant” (2023).
Activity calls are given as the source filed them. The calls are words filed in the database; no cut-off is given here. Where a SMILES comes first, the peptide text is derived from it. Bridges are numbered along the chain shown (N, C = ends). [ ]: non-standard residue; d: D form. The star is where a group is joined. X1 = CC[C@H](C)CCCCC(=O)*; dDab = NCC[C@@H](N)C(=O)O; Dab = NCC[C@H](N)C(=O)O

How the values were obtained:
Conditions in all cases: dose 0.25-4 mg/L
Pseudomonas aeruginosa [1] = assay: Antibacterial activity against Pseudomonas aeruginosa ATCC 27853 assessed as fold increase in MIC at 0.25 to 4 mg/L in presence of lung surfactant by broth microdilution assay; assay type: functional
Klebsiella pneumoniae [2] = assay: Antibacterial activity against Klebsiella pneumoniae FADDI-KP065 assessed as fold increase in MIC at 0.25 to 4 mg/L in presence of lung surfactant by broth microdilution assay; assay type: functional
Acinetobacter baumannii [3] = assay: Antibacterial activity against Acinetobacter baumannii FADDI-AB030 assessed as fold increase in MIC at 0.25 to 4 mg/L in presence of lung surfactant by broth microdilution assay; assay type: functional
Pseudomonas aeruginosa [4] = assay: Antibacterial activity against Pseudomonas aeruginosa ATCC 27853 assessed as decrease in bacterial growth at 0.25 to 4 mg/L in presence of lung surfactant by broth microdilution assay; assay type: functional, organism-based
Klebsiella pneumoniae [5] = assay: Antibacterial activity against Klebsiella pneumoniae FADDI-KP065 assessed as decrease in bacterial growth at 0.25 to 4 mg/L in presence of lung surfactant by broth microdilution assay; assay type: functional, organism-based
Acinetobacter baumannii [6] = assay: Antibacterial activity against Acinetobacter baumannii FADDI-AB030 assessed as decrease in bacterial growth at 0.25 to 4 mg/L in presence of lung surfactant by broth microdilution assay; assay type: functional, organism-based

Question: How did the “fold change (FC)” value (Pseudomonas aeruginosa [1]) turn out when CCCCCCCC[C@@H]1NC(=O)[C@@H](Cc2ccccc2)NC(=O)[C@@H](CCN)NC(=O)[C@@H](NC(=O)[C@H](CCN)NC(=O)[C@@H](NC(=O)[C@H](CCN)NC(=O)CCCCCCC)[C@@H](C)O)CCNC(=O)[C@H]([C@@H](C)O)NC(=O)[C@H](CCN)NC(=O)[C@H](CCN)NC1=O was run?
Answer: The value was 8.

Question: What about the “fold change (FC)” value (Klebsiella pneumoniae [2]) of the same compound?
Answer: The value was 2.

Question: What about the “fold change (FC)” value (Acinetobacter baumannii [3]) of the same compound?
Answer: Its value is 2.

Question: How did the Activity (Pseudomonas aeruginosa [4]) turn out when CCCCCC(=O)N[C@@H](CCN)C(=O)N[C@@H](C(=O)N[C@@H](CCN)C(=O)N[C@H]1CCNC(=O)[C@@H]([C@H](C)O)NC(=O)[C@H](CCN)NC(=O)[C@H](CCN)NC(=O)[C@H]([C@H](C)O)NC(=O)[C@@H](CC(C)C)NC(=O)[C@H](CCN)NC1=O)[C@H](C)O was run?
Answer: Its Activity is “inactive”.

Question: What about the Activity (Klebsiella pneumoniae [5]) of the same compound?
Answer: The Activity was “inactive”.

Question: What about the Activity (Acinetobacter baumannii [6]) of the same compound?
Answer: Its Activity is “inactive”.

Question: How did the Activity (Pseudomonas aeruginosa [4]) turn out when CCCCCCCCCC(=O)N[C@@H](CCN)C(=O)N[C@H](C(=O)N[C@@H](CCN)C(=O)N[C@H]1CCNC(=O)[C@H]([C@@H](C)O)NC(=O)[C@H](CCN)NC(=O)[C@H](CCN)NC(=O)[C@H]([C@H](C)O)NC(=O)[C@@H](CC(C)C)NC(=O)[C@H](CCN)NC1=O)[C@@H](C)O was run?
Answer: The Activity was “Active”.

Question: What about the Activity (Klebsiella pneumoniae [5]) of the same compound?
Answer: Its Activity is “Active”.

Question: And the Activity (Acinetobacter baumannii [6])?
Answer: The Activity was “Active”.

Question: CC[C@H](C)CCCCC(=O)N[C@@H](CCN)C(=O)N[C@H](C(=O)N[C@@H](CCN)C(=O)N[C@H]1CCNC(=O)[C@H]([C@@H](C)O)NC(=O)[C@H](CCN)NC(=O)[C@H](CCN)NC(=O)[C@H](CC(C)C)NC(=O)[C@@H](Cc2ccccc2)NC(=O)[C@H](CCN)NC1=O)[C@@H](C)O (X1-[Dab]T[Dab][Dab][Dab][dF]L[Dab][Dab]T; lactam 4-C) was tested. Which Activity (Pseudomonas aeruginosa [4]) did it give?
Answer: Its Activity is “Active”.

Question: And the Activity (Klebsiella pneumoniae [5])?
Answer: Its Activity is “Active”.

Question: What about the Activity (Acinetobacter baumannii [6]) of the same compound?
Answer: Its Activity is “Active”.

Question: What does the source list for CC[C@H](C)CCCCC(=O)N[C@@H](CCN)C(=O)N[C@H](C(=O)N[C@@H](CCN)C(=O)N[C@H]1CCNC(=O)[C@H]([C@@H](C)O)NC(=O)[C@H](CCN)NC(=O)[C@H](CCN)NC(=O)[C@H]([C@@H](C)O)NC(=O)[C@@H](CC(C)C)NC(=O)[C@H](CCN)NC1=O)[C@@H](C)O (X1-[Dab]T[Dab][Dab][Dab][dL]T[Dab][Dab]T; lactam 4-C)?
Answer: Activity (Pseudomonas aeruginosa [4]): Active; Activity (Klebsiella pneumoniae [5]): Active; Activity (Acinetobacter baumannii [6]): Active; fold change (FC) (Pseudomonas aeruginosa [1]): 2; fold change (FC) (Klebsiella pneumoniae [2]): 4; fold change (FC) (Acinetobacter baumannii [3]): 4

Question: Which results are given for CC[C@H](C)CCCCC(=O)N[C@@H](CCN)C(=O)N[C@H](C(=O)N[C@H](CCN)C(=O)N[C@H]1CCNC(=O)[C@H]([C@@H](C)O)NC(=O)[C@H](CCN)NC(=O)[C@H](CCN)NC(=O)[C@H]([C@@H](C)O)NC(=O)[C@@H](CC(C)C)NC(=O)[C@H](CCN)NC1=O)[C@@H](C)O (X1-[Dab]T[dDab][Dab][Dab][dL]T[Dab][Dab]T; lactam 4-C)?
Answer: Activity (Pseudomonas aeruginosa [4]): Active; Activity (Klebsiella pneumoniae [5]): Active; Activity (Acinetobacter baumannii [6]): Active; fold change (FC) (Pseudomonas aeruginosa [1]): 2; fold change (FC) (Klebsiella pneumoniae [2]): 8; fold change (FC) (Acinetobacter baumannii [3]): 4

Question: Which results are given for COLISTIN?
Answer: Activity (Pseudomonas aeruginosa [4]): Active; Activity (Klebsiella pneumoniae [5]): Active; Activity (Acinetobacter baumannii [6]): Active; fold change (FC) (Pseudomonas aeruginosa [1]): 4; fold change (FC) (Klebsiella pneumoniae [2]): 2; fold change (FC) (Acinetobacter baumannii [3]): 4
